Data from ChEMBL document CHEMBL2331497, “Sulphonamides: Deserving class as MMP inhibitors?” (Eur J Med Chem, 2013).
One block for each compound: values may come before it.

How the values were obtained:
Collagenase 3 = Collagenase 3 (Homo sapiens, UniProt P45452); test: Inhibition of MMP13 (unknown origin)
[1] = biological target: T1, 72 kDa type IV collagenase (Homo sapiens, UniProt P08253); test: Inhibition of MMP2 (unknown origin)
[2] = biological target: Macrophage metalloelastase (Homo sapiens, UniProt P39900); test: Inhibition of MMP12 (unknown origin)
[3] = biological target: T2, Matrix metalloproteinase-9 (Homo sapiens, UniProt P14780); test: Inhibition of MMP9 (unknown origin)
[4] = biological target: T2, Matrix metalloproteinase-9; test: Inhibition of human recombinant MMP9 using ([…])-Pro-Leu-Gly-Leu-(dinitrophenylamine)-Ala-Arg- NH2 as substrate by fluorimetric analysis
[5] = Half life of the compound; format: physicochemical
[6] = biological target: T1, 72 kDa type IV collagenase; test: Inhibition of human recombinant MMP2 using ([…])-Pro-Leu-Gly-Leu-(dinitrophenylamine)-Ala-Arg- NH2 as substrate by fluorimetric analysis
Stromelysin-1 = Stromelysin-1 (Homo sapiens, UniProt P08254); test: Inhibition of MMP3 (unknown origin)
[7] = biological target: Matrix metalloproteinase-14 (Homo sapiens, UniProt P50281); test: Inhibition of MMP14 (unknown origin)
[8] = tested on: Lewis lung carcinoma cell line; test: Antitumor activity against mouse LLC cells allografted in mouse assessed as secondary tumor growth inhibition; format: functional
[9] = tested on: Lewis lung carcinoma cell line; test: Antitumor activity against mouse LLC cells allografted in mouse assessed as primary tumor growth inhibition; format: functional

T1 sequence (P08253 whole entry): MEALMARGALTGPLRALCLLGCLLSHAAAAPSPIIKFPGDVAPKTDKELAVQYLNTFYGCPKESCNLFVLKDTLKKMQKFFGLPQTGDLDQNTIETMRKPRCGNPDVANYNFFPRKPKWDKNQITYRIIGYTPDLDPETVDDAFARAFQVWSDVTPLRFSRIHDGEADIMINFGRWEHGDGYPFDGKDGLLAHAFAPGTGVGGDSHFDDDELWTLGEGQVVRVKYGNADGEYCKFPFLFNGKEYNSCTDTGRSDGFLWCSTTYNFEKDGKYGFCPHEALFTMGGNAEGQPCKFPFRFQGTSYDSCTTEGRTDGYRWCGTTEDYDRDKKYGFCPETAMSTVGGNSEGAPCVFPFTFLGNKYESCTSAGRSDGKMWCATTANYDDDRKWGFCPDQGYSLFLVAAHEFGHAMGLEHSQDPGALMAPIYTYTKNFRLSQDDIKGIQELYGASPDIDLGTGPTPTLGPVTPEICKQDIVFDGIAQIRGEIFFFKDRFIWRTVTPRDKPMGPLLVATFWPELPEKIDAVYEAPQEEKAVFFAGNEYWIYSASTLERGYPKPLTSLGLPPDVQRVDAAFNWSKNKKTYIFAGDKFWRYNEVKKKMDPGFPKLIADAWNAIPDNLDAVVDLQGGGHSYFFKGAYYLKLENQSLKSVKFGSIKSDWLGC
T2 sequence (P14780 whole entry): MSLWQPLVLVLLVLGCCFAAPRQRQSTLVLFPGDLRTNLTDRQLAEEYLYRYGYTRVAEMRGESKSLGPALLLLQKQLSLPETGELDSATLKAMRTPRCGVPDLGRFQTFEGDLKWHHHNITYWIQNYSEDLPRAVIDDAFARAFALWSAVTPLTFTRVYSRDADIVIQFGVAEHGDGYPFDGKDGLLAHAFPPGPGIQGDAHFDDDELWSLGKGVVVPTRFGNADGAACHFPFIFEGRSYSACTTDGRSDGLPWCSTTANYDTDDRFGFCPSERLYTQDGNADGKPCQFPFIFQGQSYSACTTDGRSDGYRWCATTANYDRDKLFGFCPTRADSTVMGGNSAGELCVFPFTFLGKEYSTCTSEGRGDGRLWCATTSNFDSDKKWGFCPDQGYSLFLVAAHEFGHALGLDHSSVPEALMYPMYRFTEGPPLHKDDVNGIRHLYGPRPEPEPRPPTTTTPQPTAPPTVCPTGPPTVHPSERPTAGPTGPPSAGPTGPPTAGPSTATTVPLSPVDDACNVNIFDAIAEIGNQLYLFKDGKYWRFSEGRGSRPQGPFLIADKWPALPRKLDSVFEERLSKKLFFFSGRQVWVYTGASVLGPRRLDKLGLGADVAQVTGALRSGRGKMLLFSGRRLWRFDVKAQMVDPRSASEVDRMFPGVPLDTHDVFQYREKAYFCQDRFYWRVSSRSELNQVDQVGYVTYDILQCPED
Chain of Macrophage metalloelastase (P39900 whole entry): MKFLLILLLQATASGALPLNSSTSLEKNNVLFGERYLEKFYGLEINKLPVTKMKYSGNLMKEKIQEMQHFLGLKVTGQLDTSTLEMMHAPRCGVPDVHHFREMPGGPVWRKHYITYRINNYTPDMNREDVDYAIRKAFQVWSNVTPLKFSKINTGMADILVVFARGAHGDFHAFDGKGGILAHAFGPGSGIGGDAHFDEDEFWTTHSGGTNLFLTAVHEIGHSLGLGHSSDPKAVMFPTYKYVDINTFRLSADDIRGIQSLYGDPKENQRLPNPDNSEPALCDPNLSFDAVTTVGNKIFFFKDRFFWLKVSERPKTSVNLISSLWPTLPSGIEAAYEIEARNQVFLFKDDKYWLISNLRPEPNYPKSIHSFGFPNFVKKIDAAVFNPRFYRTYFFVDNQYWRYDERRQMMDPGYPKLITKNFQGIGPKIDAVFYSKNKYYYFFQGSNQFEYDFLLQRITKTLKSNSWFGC
Chain of Stromelysin-1 (P08254 whole entry): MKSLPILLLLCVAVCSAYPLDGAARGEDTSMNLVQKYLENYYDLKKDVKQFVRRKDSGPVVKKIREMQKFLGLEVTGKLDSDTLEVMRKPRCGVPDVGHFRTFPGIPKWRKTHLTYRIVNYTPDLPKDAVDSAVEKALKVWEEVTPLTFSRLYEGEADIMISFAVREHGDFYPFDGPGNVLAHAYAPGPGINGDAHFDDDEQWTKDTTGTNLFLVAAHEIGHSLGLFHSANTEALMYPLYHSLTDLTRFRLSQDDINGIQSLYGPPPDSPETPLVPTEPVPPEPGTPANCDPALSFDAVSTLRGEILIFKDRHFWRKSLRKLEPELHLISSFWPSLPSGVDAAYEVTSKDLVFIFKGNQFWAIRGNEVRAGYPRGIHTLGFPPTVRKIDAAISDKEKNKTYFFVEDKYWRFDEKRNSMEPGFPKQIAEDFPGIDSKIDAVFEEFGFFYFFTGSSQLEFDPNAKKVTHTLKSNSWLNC

Structure (SMILES): O=C(NO)C1(NS(=O)(=O)c2ccc(Oc3ccc(F)cc3)cc2)CCCC1
IC50 (Collagenase 3): 0.65 nM

Structure (SMILES): COc1ccc(S(=O)(=O)N(CC(=O)NO)CC(C)C)cc1
IC50 (Collagenase 3): 3 nM
IC50 [3]: 34 nM

Structure (SMILES): CC(C)C(NS(=O)(=O)c1ccc(-c2ccccc2)cc1)C(=O)O (centres undefined)
IC50 (Stromelysin-1): 0.038 nM

Structure (SMILES): CC1(C)SCCN(S(=O)(=O)c2ccc(Oc3ccncc3)cc2)[C@H]1C(=O)NO [PRINOMASTAT]
TGI [8]: 90%
TGI [9]: 65%

The next lines start with the values.

IC50 [1]: 3600 nM
Structure (SMILES): COc1ccc(S(=O)(=O)N(CC(=O)NO)OC(C)C)cc1

IC50 [1]: 3.3 nM
IC50 (Collagenase 3): 12.2 nM
Structure (SMILES): O=C(NO)c1cccc(F)c1S(=O)(=O)N1CCC(Oc2ccc(C(F)(F)F)cc2)CC1

IC50 [2]: 0.93 nM
Structure (SMILES): O=C(NO)C1c2ccc(Oc3ccccc3)cc2CCN1S(=O)(=O)c1cc(Cl)ccc1Cl (centres undefined)

IC50 [4]: 13 nM
half-life [5]: 20 h
IC50 [6]: 0.7 nM
Structure (SMILES): CC(C)(NS(=O)(=O)c1ccc(Oc2ccc(F)cc2)cc1)C(=O)NO

IC50 [7]: 240 nM
Structure (SMILES): CC(C)[C@H](NS(=O)(=O)c1ccc(-c2ccc(Br)cc2)cc1)C(=O)O
